Experimental data as given in US11230717B2, “Plants having increased tolerance to herbicides” (BASF SE, priority 2013, dated 2022).

Key:
transgenic Corn plants = experiment: Greenhouse testing of transgenic Corn plants (homozygous T2), herbicide spray test; format: in vivo, Zea mays
Method: (§1) Transgenic plants expressing heterologous HPPD or HST enzymes are tested for tolerance against HPPD-inhibiting herbicides in greenhouse experiments.
(§2) For post emergence treatment, the test plants are first grown to a height of 3 to 15 cm, depending on the plant habit, and only then treated with the herbicides. For this purpose, the test plants are either sown directly and grown in the same containers, or they are first grown separately and transplanted into the test containers a few days prior to treatment. For testing of T0 plants, cuttings can be used. In the case of soybean plants, an optimal shoot for cutting is about 7.5 to 10 cm tall, with at least two nodes present. Each cutting is taken from the original transformant (mother plant) and dipped into rooting hormone powder (indole-3-butyric acid, IBA). The cutting is then placed in oasis wedges inside a bio-dome. Wild type cuttings are also taken simultaneously to serve as controls. The cuttings are kept in the bio-dome for 5-7 days and then transplanted to pots and then acclimated in the growth chamber for two more days. Subsequently, the cuttings are transferred to the greenhouse, acclimated for approximately 4 days, and then subjected to spray tests as indicated.
(§3) Depending on the species, the plants are kept at 10-25° C. or 20-35° C. The test period ex-tends over 3 weeks. During this time, the plants are tended and their response to the individual treatments is evaluated. Herbicide injury evaluations are taken at 2 and 3 weeks after treatment. Plant injury is rated on a scale of 0 to 9, 0 being no injury and 9 being complete death.
Transgenic corn plants were sprayed with doses from 62.5-250 g/ha with the benzamide-derivative HPPD-inhibiting herbicide and injury evaluations were taken two weeks after treatment. […] As depicted in Table 19, control plants were severely injured by all doses of herbicide applied, with 86% of leaf material being damaged at the highest rate applied. […] Application of 250 g/ha active ingredient resulted only in 10% leaf damage (event 1) in transgenic plants which gave in direct comparison with wild-type plants (injury value is 86%) an 8-fold increased tolerance at this application rate. In addition, transgenic corn plants comprising a transgene encoding the mutated version of Arabidopsis HPPD with methionine 335 exchanged to histidine, are tolerant for the benzamide-derivative inhibitor tested in the present invention.

transgenic Soy plants [1] = experiment: Greenhouse testing of transgenic Soy plants (T2), herbicide spray test; format: in vivo, Glycine max
Method: as §1, §2, §3
As depicted in Table 20, control plants were severely injured by all doses of herbicide applied, with 79% of leaf material being damaged at the highest application rate. […] Application of 31,25 g/ha active ingredient resulted only in 10-13% of leaf damage in two independent transgenic plant lines. Thus, in direct comparison with wild-type plants (injury value is 49%), a 4-fold increased tolerance could be observed after spraying with 31,25 g/ha. […]

transgenic Soy plants [2] = experiment: as above; format: in vivo, Glycine max; remark: listed apart in the source

`CSc1c(Cl)cc(F)c(C(=O)Nc2ncnn2C)c1Cl` [Inhibitor 3, 2,4-dichloro-6-fluoro-3-methylsulfanyl-N-(2-methyl-1,2,4-triazol-3-yl)benzamide] was tested, and the “Injury evaluation, scale 0-100%” value (transgenic Corn plants; Corn AtL385V, I393L Event 1, 62.5 g/ha, two weeks) was 3%, the “Injury evaluation, scale 0-100%” value (transgenic Corn plants; Corn AtL385V, I393L Event 1, 125 g/ha, two weeks) was 7% and the “Injury evaluation, scale 0-100%” value (transgenic Corn plants; Corn AtL385V, I393L Event 1, 250 g/ha, two weeks) was 10%. For the same compound, the “Injury evaluation, scale 0-100%” value (transgenic Corn plants; Corn AtL385V, I393L Event 2, 62.5 g/ha, two weeks) was 6%, the “Injury evaluation, scale 0-100%” value (transgenic Corn plants; Corn AtL385V, I393L Event 2, 125 g/ha, two weeks) was 10% and the “Injury evaluation, scale 0-100%” value (transgenic Corn plants; Corn AtL385V, I393L Event 2, 250 g/ha, two weeks) was 47%. The “Injury evaluation, scale 0-100%” value (transgenic Corn plants; Corn AtM335H, 62.5 g/ha, two weeks) was 3%, the “Injury evaluation, scale 0-100%” value (transgenic Corn plants; Corn AtM335H, 125 g/ha, two weeks) was 4% and the “Injury evaluation, scale 0-100%” value (transgenic Corn plants; Corn AtM335H, 250 g/ha, two weeks) was 6%. The “Injury evaluation, scale 0-100%” value (transgenic Corn plants; Corn WT, 62.5 g/ha, two weeks after treatment) was 40%, the “Injury evaluation, scale 0-100%” value (transgenic Corn plants; Corn WT, 125 g/ha, two weeks after treatment) was 63% and the “Injury evaluation, scale 0-100%” value (transgenic Corn plants; Corn WT, 250 g/ha, two weeks after treatment) was 86%. For the same compound, the “increased tolerance vs wild-type plants” value (transgenic Soy plants [1]; Soy Arabidopsis HPPD (SEQ ID: 53), 31,25 g/ha) was 4 fold, the leaf damage (transgenic Soy plants [1]; Soy Arabidopsis HPPD, two independent transgenic plant lines, 31,25 g/ha) was 10-13% and the “tolerance compared to nontransgenic control plants” value (transgenic Soy plants [1]; Soy expressing Glycine max HPPD) was “more tolerant”. The “Injury evaluation, scale 0-100%” value (transgenic Soy plants [2]; Soy AtHPPD Event 1, 31.25 g/ha, two weeks) was 10%, the “Injury evaluation, scale 0-100%” value (transgenic Soy plants [2]; Soy AtHPPD Event 1, 62.5 g/ha, two weeks) was 16% and the “Injury evaluation, scale 0-100%” value (transgenic Soy plants [2]; Soy AtHPPD Event 1, 125 g/ha, two weeks) was 44%. For the same compound, the “Injury evaluation, scale 0-100%” value (transgenic Soy plants [2]; Soy AtHPPD Event 2, 31.25 g/ha, two weeks) was 13%, the “Injury evaluation, scale 0-100%” value (transgenic Soy plants [2]; Soy AtHPPD Event 2, 62.5 g/ha, two weeks) was 23% and the “Injury evaluation, scale 0-100%” value (transgenic Soy plants [2]; Soy AtHPPD Event 2, 125 g/ha, two weeks) was 40%. The “Injury evaluation, scale 0-100%” value (transgenic Soy plants [2]; Soy AtL385V, I393L Event 2, 31.25 g/ha, two weeks) was 20%, the “Injury evaluation, scale 0-100%” value (transgenic Soy plants [2]; Soy AtL385V, I393L Event 2, 62.5 g/ha, two weeks) was 35% and the “Injury evaluation, scale 0-100%” value (transgenic Soy plants [2]; Soy AtL385V, I393L Event 2, 125 g/ha, two weeks) was 38%. For the same compound, the “Injury evaluation, scale 0-100%” value (transgenic Soy plants [2]; Soy AtM335H Event 1, 31.25 g/ha, two weeks) was 10%, the “Injury evaluation, scale 0-100%” value (transgenic Soy plants [2]; Soy AtM335H Event 1, 62.5 g/ha, two weeks) was 21% and the “Injury evaluation, scale 0-100%” value (transgenic Soy plants [2]; Soy AtM335H Event 1, 125 g/ha, two weeks) was 33%. The “Injury evaluation, scale 0-100%” value (transgenic Soy plants [2]; Soy AtM335H Event 2, 31.25 g/ha, two weeks) was 14%, the “Injury evaluation, scale 0-100%” value (transgenic Soy plants [2]; Soy AtM335H Event 2, 62.5 g/ha, two weeks) was 29% and the “Injury evaluation, scale 0-100%” value (transgenic Soy plants [2]; Soy AtM335H Event 2, 125 g/ha, two weeks) was 31%. The “Injury evaluation, scale 0-100%” value (transgenic Soy plants [2]; Soy AtM335Y, 31.25 g/ha, two weeks) was 9%, the “Injury evaluation, scale 0-100%” value (transgenic Soy plants [2]; Soy AtM335Y, 62.5 g/ha, two weeks) was 45% and the “Injury evaluation, scale 0-100%” value (transgenic Soy plants [2]; Soy AtM335Y, 125 g/ha, two weeks) was 46%. The “Injury evaluation, scale 0-100%” value (transgenic Soy plants [2]; Soy AtP336A, E363Q, L385V, I393L, 31.25 g/ha, two weeks) was 30%, the “Injury evaluation, scale 0-100%” value (transgenic Soy plants [2]; Soy AtP336A, E363Q, L385V, I393L, 62.5 g/ha, two weeks) was 30% and the “Injury evaluation, scale 0-100%” value (transgenic Soy plants [2]; Soy AtP336A, E363Q, L385V, I393L, 125 g/ha, two weeks) was 50%. For the same compound, the “Injury evaluation, scale 0-100%” value (transgenic Soy plants [2]; Soy GmHPPD1, 31.25 g/ha, two weeks) was 15%, the “Injury evaluation, scale 0-100%” value (transgenic Soy plants [2]; Soy GmHPPD1, 62.5 g/ha, two weeks) was 29% and the “Injury evaluation, scale 0-100%” value (transgenic Soy plants [2]; Soy GmHPPD1, 125 g/ha, two weeks) was 46%. The “Injury evaluation, scale 0-100%” value (transgenic Soy plants [2]; Soy, transgene none, 31.25 g/ha, two weeks after treatment) was 49%, the “Injury evaluation, scale 0-100%” value (transgenic Soy plants [2]; Soy, transgene none, 62.5 g/ha, two weeks after treatment) was 68% and the “Injury evaluation, scale 0-100%” value (transgenic Soy plants [2]; Soy, transgene none, 125 g/ha, two weeks after treatment) was 79%.
